# Data from US12070520B2, “Dermal delivery device” (Agile Therapeutics, Inc., priority 2007, dated 2024).
# Assay: Control of loss of volatile components: amounts in the AI patch after storage (gas chromatography)
# Format: physicochemical
# Description: A transdermal hormone delivery device was prepared comprising an internal backing layer, an AI layer, and a release liner. […] The device also comprised an overlay comprising a polyurethane spun bonded non-woven backing, which is able to absorb large amounts of the volatile excipients, DMSO and ethyl lactate, an acrylic PSA coated onto the polyurethane foam, and a PIB PSA coated on top of the acrylic PSA. […] The release liner was a Mylar polyester film coated with a fluoropolymer release coating. […] The devices were placed in a 25 C or 40 C oven. After 6 weeks and 12 weeks, devices were removed from the oven and the active section of each device was separated from the overlay. […] (12 weeks exposure to 40 C is intended to simulate 18 months exposure to room temperature (25 C)).
SMILES,"Amount in the AI patch (6 wks, 40 C.)","Amount in the AI patch (12 wks, 40 C.)","Amount in the AI patch (12 wks, room temp)"
"CCCCCCCCCCCCOC(=O)C(C)O (stereo not drawn) [Lauryl Lactate, lauryl lactate]",9.02 wt %,9.20 wt %,9.10 wt %
"CCOC(=O)C(C)O (stereo not drawn) [Ethyl Lactate, ethyl lactate]",1.66 wt %,1.57 wt %,1.79 wt %
"C[S+](C)[O-] [DMSO, dimethyl sulfoxide]",9.02 wt %,8.98 wt %,9.08 wt %
